Data reported in US20230255946A1 (Pure Tech LYT 100, Inc., priority 2020, published 2023).
Read-outs that look alike come from different tables or passages of the source. Marks after values point to notes of the source that are not given here.

Tests used:
[1] = Repeat dose oral toxicity and toxicokinetics study in Sprague Dawley rats
Description: The protocol was amended to add additional TK male animals in Group 6 for Day 1 collection of TK samples at 875 mg/kg.
Blood samples were collected from 3 subsets of 3 animals/sex on Day 1 and Day 28 at predose, 0.25, 0.5, 1, 2, 4, 8 and 24 hours (hr) post-dose for groups 2 to 6 and from one subset of 3 animals/sex at 0.25 hr post-dose for the vehicle group (group 1). […] Non-compartmental analysis (NCA) of plasma concentration data was conducted using Phoenix® WinNonlin®, version 8.0.

[2] = Phase 1 Multiple Ascending Dose (MAD) study Part 1, plasma pharmacokinetics
Description: All Part 1 cohorts will be dosed every 12 hours with food for 5 days.
During the treatment period (Day 1 through Day 5), participants will be administered their assigned study medication BID, every 12 h ± 0.25 h (with approximately 240 mL of non-carbonated water), 30 minutes after the start of consumption of their standardised breakfast or dinner (12 h apart). A standardised lunch will be served ≥ 4 h post breakfast and ≥ 4 h prior to dinner. An evening snack will be served ≥ 3 h following evening study medication administration. No additional fluids will be allowed during the 1 h pre- and post-doses. On Day 6, subjects will replicate mealtimes as scheduled on Day 1-5.
In Part 1, blood samples (4 mL each) for PK will be collected for Cohorts 1, 2, 3, 4, and 6 at specified times (hours) at each as follows: • Day 1 and Day 5: 0 (pre-dose), 0.5, 1, 1.5, 2, 2.5, 3, 3.5, 4, 6, 8, 12 (pre-dose), 13, 14, 15, 16, 18 h • Day 2, Day 3 and Day 4: 0 (pre-morning-dose) and 12 h (pre-evening-dose) • Day 6: 12, 18, 24 and 36 h post-last dose • Day 7: 48 h (post-last dose)
Pharmacokinetics for Day 1 to 3 in Part 2 (fed state) will be compared to PK for Day 1 to Day 3 in Part 2 (fasted state). Plasma PK parameters (non-compartmental or compartmental analysis as appropriate) will include, but are not limited to: • Following single dose: Tmax, tlag, Cmax, AUC0-4, AUC0-last, t½, AUC0-inf, lambda z, %AUCext, CL/F, Vz/F, Cmax/D, AUC0-last/D, AUC0-inf/D and MRT (D is dose) • After repeated doses: Ctrough, Ctrough/D • Following repeated doses on last day: Tmax, Cmax, Cavg, tlag, t½, AUC0-4, AUC0-last, AUC0-inf, lambda z, %AUCext, CLss/F, Vzss/F, MRT, PTF, Rac(AUC), Rac(Cmax), Cmax/D, AUClast/D, AUC0-inf/D and Rac (accumulation ratio)
All cohorts (n=6 each) were dosed every 12 hours with food for 5 days at either 100, 250, 500, or 750 mg BID. […] Following processing, the samples were analyzed by HPLC on a Phenomenex Luna PFP(2), 3 µm, 50 x 2.0 mm column, and the eluates were monitored by an API4000 MS/MS detector in positive MRM mode. The data were acquired and processed by the data acquisition system Analyst® (Sciex).

[3] = Single dose, double-blinded, cross-over clinical trial of 801 mg LYT-100 vs pirfenidone, safety and pharmacokinetics; settings: for Cmax / tmax: 5-hydroxymethyl metabolite after 801 mg of parent (LYT-110 after LYT-100, LYT-111 after pirfenidone); for Cmax / AUC0-t / AUC(inf) / Kel / t½: Mean (CV%); for tmax: Median (Range); for AUC0-t / AUC(inf) / Kel / t½: 5-hydroxymethyl metabolite after 801 mg of parent; for AUC(inf) / Kel / t½: n=23 LYT-110, n=19 LYT-111; for Metabolite/Parent Ratio, AUC0-∞, Mean / Metabolite/Parent Ratio, Cmax, Mean: MW-corrected; for metabolite as percent of parent in terms of AUC: single 801 mg dose
Excerpt: (§1) Following screening, eligible healthy volunteer subjects were admitted to a single clinical study site and were randomized to 1 of 2 treatment sequences. […] In each period, a standardized breakfast was provided to subjects prior to administration of study drug (to compare the PK profiles in the clinically relevant fed state) and plasma samples were collected over a 48-hour period after dosing for evaluation of PK. Dosing between the 2 periods was separated by a minimum of 7 days. Subjects completed the study upon completion of the 48-hour post-dose assessments following dosing period 2.
(§2) All capsules were identical in size, shape, and external color.

[4] = human, in vivo, 48 h
Excerpt: as §1, §2

[5] = cited from earlier work
[6] = cited from earlier work; remark: listed apart in the source
[7] = Day 1, Female, deuterated analyte / non-deuterated counterpart
[8] = across dose groups 100, 250, 500, 750 mg BID (FIG. 20)
[9] = across dose groups 100, 250, 500, 750, 1000 mg BID (FIG. 26)
[10] = after 801 mg LYT-100 (parent LYT-100)
[11] = Lancaster et al. 2017, frequencies as high as
[12] = patients aged at least 80 years
[13] = single-center retrospective study of 351 patients
[14] = after 801 mg pirfenidone (parent LYT-101)

[2H]C([2H])(O)c1ccc(=O)n(-c2ccccc2)c1 [LYT-110, d2-5-hydroxymethyl-pirfenidone]
Cmax in rat relative to human ([1]; 750 mg/kg LYT-100, Day 1, male rat vs human 801 mg): ~1825 fold
exposure (AUC) in rat relative to human ([1]; 750 mg/kg LYT-100, Day 1, male rats vs human 801 mg): about 1250 fold
similarity in exposure (AUC ratio), Group 4 (LYT-100 at 750 mg/kg) / Group 5 (SD-559 at 750 mg/kg) [1, 7]: 2.50
similarity in exposure (AUC ratio), Group 4 (LYT-100 at 750 mg/kg) / Group 5 (SD-559 at 750 mg/kg) ([1]; Day 1, Male): 2.22
similarity in exposure (AUC ratio), Group 4 (LYT-100 at 750 mg/kg) / Group 5 (SD-559 at 750 mg/kg) ([1]; Day 28, Female): 2.59
similarity in exposure (AUC ratio), Group 4 (LYT-100 at 750 mg/kg) / Group 5 (SD-559 at 750 mg/kg) ([1]; Day 28, Male): 2.54
exposure and Cmax vs. non-deuterated corresponding metabolite (SD-788) ([1]; SD-560 750 mg/kg vs SD-559 750 mg/kg, all days, both genders): almost twice
exposure in rats relative to humans ([1]; male rat after 28 days of daily dosing vs human): ~1600 fold
average ratio to the parent (M/P) by AUC ([2]; Cohort 4, 750 mg BID LYT-100): 0.0025 (0.0020-0.0029)
average ratio to the parent (M/P) by AUC ([2]; Cohort 6, 1000 mg BID LYT-100): 0.0028 (0.0018-0.0038)
AUC accumulation ratio (AUC96-108/AUC0-12) [2, 8]: ~ 1
AUC accumulation ratio (AUC96-108/AUC0-12) [2, 9]: ~ 1
Cmax [3]: 20.6 (30%) ng/mL
tmax [3]: 2.50 (1.00 - 4.00) hr
AUC0-t [3]: 111 (32%) hr*ng/mL
AUC(inf) [3]: 124 (32%) ^a hr*ng/mL
Kel [3]: 0.294 (44%) ^a ⅟hr
t½ [3]: 2.76 (38%) ^a hr
Metabolite/Parent Ratio, AUC0-∞, Maximum [3, 10]: 0.4%
Metabolite/Parent Ratio, AUC0-∞, Median [3, 10]: 0.2%
Metabolite/Parent Ratio, AUC0-∞, Minimum [3, 10]: 0.1%
Metabolite/Parent Ratio, Cmax, Maximum [3, 10]: 0.4%
Metabolite/Parent Ratio, Cmax, Median [3, 10]: 0.2%
Metabolite/Parent Ratio, Cmax, Minimum [3, 10]: 0.1%
Metabolite/Parent Ratio, AUC0-∞, Mean [3, 10]: 0.2%
Metabolite/Parent Ratio, Cmax, Mean [3, 10]: 0.2%

Cc1ccc(=O)n(-c2ccccc2)c1 [pirfenidone, 5-methyl-1-phenyl-1H-pyridin-2-one]
tolerability of single doses [4]: well tolerated
AUC, % Change Fed vs Fasted ([5]; Pirfenidone @ 800 mg): -15%
Cmax, % Change Fed vs Fasted ([5]; Pirfenidone @ 800 mg): -49%
Tmax, % Change Fed vs Fasted ([5]; Pirfenidone @ 800 mg): +500%
increase in Tmax, fed vs fasted ([5]; pirfenidone): 500%
diarrhea, TEAE frequency [6, 11]: ≤ 27.6 per 100PEY
fatigue, TEAE frequency [6, 11]: ≤ 52.4 per 100PEY
nausea, TEAE frequency [6, 11]: ≤ 62.1 per 100 PEY
adverse drug reactions leading to permanent treatment discontinuation ([6]; PASSPORT study, Cottin et al. 2018): 28.7%
patients who had an adverse event ([6]; compassionate use program, Raghu & Thickett 2013): 44%
half-life ([6]; in humans): about 2.5 hours
ADR leading to discontinuation ([6]; patients aged <65 years): 7.5%
ADR leading to discontinuation [6, 12]: 20.9%
ADR leading to dose modification/interruption [6, 12]: 32.7%
ADR leading to dose modification/interruption ([6]; patients aged less than 65 years): 18.0%
elevations of AST and ALT levels to >3× ULN ([6]; phase III trials): 3.2%
loss of appetite [6, 13]: 17%
nausea/vomiting [6, 13]: 15%
reported AEs that were GI-related [6, 13]: 75%

Cc1ccc(=O)n(-c2ccc(O)cc2)c1 [LYT-104, 4′-hydroxy-pirfenidone]
Metabolite/Parent Ratio, Cmax, Maximum [3, 14]: 0.1%
Metabolite/Parent Ratio, Cmax, Median [3, 14]: 0.0%
Metabolite/Parent Ratio, Cmax, Minimum [3, 14]: 0.0%
Metabolite/Parent Ratio, Cmax, Mean [3, 14]: 0.0%
metabolite as percent of parent in terms of AUC [3]: less than 2%

O=c1ccc(CO)cn1-c1ccccc1 [LYT-111, 5-hydroxymethyl-pirfenidone]
Cmax [3]: 17.1 (36%) ng/mL
tmax [3]: 2.50 (1.50 - 4.00) hr
AUC0-t [3]: 75.8 (42%) hr*ng/mL
AUC(inf) [3]: 89.7 (41%) ^b hr*ng/mL
Kel [3]: 0.367 (29%) ^b ⅟hr
t½ [3]: 2.04 (29%) ^b hr
Metabolite/Parent Ratio, AUC0-∞, Maximum [3, 14]: 0.4%
Metabolite/Parent Ratio, AUC0-∞, Median [3, 14]: 0.2%
Metabolite/Parent Ratio, AUC0-∞, Minimum [3, 14]: 0.1%
Metabolite/Parent Ratio, Cmax, Maximum [3, 14]: 0.4%
Metabolite/Parent Ratio, Cmax, Median [3, 14]: 0.2%
Metabolite/Parent Ratio, Cmax, Minimum [3, 14]: 0.1%
Metabolite/Parent Ratio, AUC0-∞, Mean [3, 14]: 0.2%
Metabolite/Parent Ratio, Cmax, Mean [3, 14]: 0.2%
metabolite as percent of parent in terms of AUC [3]: less than 2%

[2H]C([2H])([2H])c1ccc(=O)n(-c2ccc(O)cc2)c1 [LYT-103, d3-4′-hydroxy-pirfenidone]
similarity in exposure (AUC ratio), Group 4 (LYT-100 at 750 mg/kg) / Group 5 (SD-559 at 750 mg/kg) [1, 7]: 21.77
similarity in exposure (AUC ratio), Group 4 (LYT-100 at 750 mg/kg) / Group 5 (SD-559 at 750 mg/kg) ([1]; Day 1, Male): 34.51
similarity in exposure (AUC ratio), Group 4 (LYT-100 at 750 mg/kg) / Group 5 (SD-559 at 750 mg/kg) ([1]; Day 28, Female): 38.04
average ratio to the parent (M/P) by AUC ([2]; Cohort 4, 750 mg BID LYT-100): 0.0017 (0.0012-0.0022)
average ratio to the parent (M/P) by AUC ([2]; Cohort 6, 1000 mg BID LYT-100): 0.0037 (0.0030-0.0058)
AUC accumulation ratio (AUC96-108/AUC0-12) [2, 8]: ~ 1
AUC accumulation ratio (AUC96-108/AUC0-12) [2, 9]: ~ 1
Metabolite/Parent Ratio, AUC0-∞, Maximum [3, 10]: 0.2%
Metabolite/Parent Ratio, AUC0-∞, Median [3, 10]: 0.1%
Metabolite/Parent Ratio, AUC0-∞, Minimum [3, 10]: 0.1%
Metabolite/Parent Ratio, Cmax, Maximum [3, 10]: 0.2%
Metabolite/Parent Ratio, Cmax, Median [3, 10]: 0.1%
Metabolite/Parent Ratio, Cmax, Minimum [3, 10]: 0.1%
Metabolite/Parent Ratio, AUC0-∞, Mean [3, 10]: 0.1%
Metabolite/Parent Ratio, Cmax, Mean [3, 10]: 0.1%
quantifiability of metabolite in human plasma ([3]; after LYT-100 801 mg): not quantifiable
